Converted amounts (≈) assume the structure as drawn. Marks after values point to notes of the source that are not given here.
Tests used:
[1] = test system: Staphylococcus aureus; test: In vitro antibacterial activity, standard agar dilution method (Table II); type: cell-based
[2] = test system: Staphylococcus saprophyticus; test: as above; type: cell-based; conditions: strain VHG-84-50
[3] = test system: Streptococcus sp. (β-hemolytic); test: as above; type: cell-based
[4] = test system: Streptococcus pneumoniae; test: as above; type: cell-based
[5] = test system: Escherichia coli; test: as above; type: cell-based; conditions: strain 311
[6] = test system: Enterobacter cloacae; test: as above; type: cell-based; conditions: strain VGH-84-37
[7] = test system: Morganella morganii; test: as above; type: cell-based; conditions: strain VGH-84-71
[8] = test system: Serratia marcescens; test: as above; type: cell-based; conditions: strain K-84-18
[9] = test system: Pseudomonas aeruginosa; test: as above; type: cell-based; conditions: strain 12-4-4
[10] = test system: Bacteroides fragilis; test: as above; type: cell-based; conditions: strain NYC 77-1
[11] = test system: Clostridium difficile; test: as above; type: cell-based; conditions: strain ATCC 17858
[12] = test system: Clostridium perfringens; type: cell-based; conditions: strain ATCC 13124
[13] = test system: Peptococcus magnus; test: In vitro antibacterial activity, standard agar dilution method (Table II); type: cell-based
[14] = test system: Pasteurella haemolytica 30660; test: Pasteurella disk test (primary in vitro disk diffusion test); type: cell-based; conditions: disks soaked in 2.5 mg/ml solution; strain 30660
[15] = test system: Streptococcus pyogenes; test: Minimum inhibitory concentration by agar dilution (Table VI); type: cell-based; conditions: 2 strains tested
[16] = test system: Streptococcus agalactiae; test: as above; type: cell-based; conditions: 4 strains tested
[17] = test system: Streptococcus uberis; test: as above; type: cell-based; conditions: 1 strain tested
[18] = test system: Escherichia coli; test: as above; type: cell-based; conditions: 2 strains tested
[19] = test system: Salmonella choleraesuis; test: as above; type: cell-based; conditions: 2 strains tested
[20] = test system: Bordetella bronchiseptica; test: as above; type: cell-based; conditions: 4 strains tested
[21] = test system: Pasteurella multocida; test: as above; type: cell-based; conditions: 6 strains tested
[22] = test system: Pasteurella haemolytica; test: as above; type: cell-based; conditions: 3 strains tested
[23] = test system: Treponema hyodysenteriae; test: Minimum inhibitory concentration by microdilution (Table VII); type: cell-based
[24] = Weight gain and feed efficiency of broiler chicks (Example 6, Table IX); type: in vivo, Peterson X Arbor Acres chicks; conditions: for Wg Gains And Feed Efficiency % Improvement Over Controls FEED/GAIN: control 1.41
[25] = test system: Streptococcus pyogenes C203; test: In vivo antibacterial activity in infected mice (Table III); conditions: S. pyogenes C203, 30 minutes before infection
[26] = test system: Staphylococcus aureus Smith; test: as above; conditions: S. aureus Smith, 30 minutes before infection
[27] = test system: Mycoplasma gallisepticum "R"; test: Minimum inhibitory concentration assay for Mycoplasma gallisepticum (microdilution, Table VII); conditions: microdilution; "R" strain
[28] = single subcutaneous dose 4 mg/kg
[29] = single subcutaneous dose 16 mg/kg
[30] = single subcutaneous dose 64 mg/kg

C/C=C/C=C/[C@@H]1O[C@](O)([C@H](CO[C@H]2C[C@H](OC)[C@H](O[C@@H]3C[C@H](OC)[C@@H](O[C@H]4C[C@H](OC)[C@H](O)[C@H](C)O4)[C@H](C)O3)[C@H](C)O2)C(=O)NC/C=C/C=C(\C)[C@H](OC)[C@@H](C)[C@@H]2C[C@H](O)[C@@H](/C=C/C=C/C=C\C(=O)O)O2)[C@@H](O)[C@H](OC(=O)Cc2ccccc2)C1(C)C [LL-E19020 beta]
Minimal Inhibitory Concentration ([1]; strain ATCC 25923): > 256 µg/mL | Minimal Inhibitory Concentration ([1]; strain CMC-83-127): > 128 µg/mL | Minimal Inhibitory Concentration ([1]; strain CMC-83-131): > 128 µg/mL | Minimal Inhibitory Concentration ([1]; strain CMC-83-132): > 128 µg/mL | Minimal Inhibitory Concentration ([1]; strain SSC-82-57): > 128 µg/mL | Minimal Inhibitory Concentration ([1]; strain Smith): > 128 µg/mL | Minimal Inhibitory Concentration ([1]; strain VGH-84-45): > 128 µg/mL | Minimal Inhibitory Concentration [2]: > 128 µg/mL | Minimal Inhibitory Concentration ([3]; strain C203): 0.5 µg/mL | Minimal Inhibitory Concentration ([3]; strain VGH-84-60): 0.25 µg/mL | Minimal Inhibitory Concentration ([3]; strain VGH-84-61): 0.5 µg/mL | Minimal Inhibitory Concentration ([3]; strain VGH-84-62): 0.5 µg/mL | Minimal Inhibitory Concentration ([3]; strain VGH-84-63): 0.12 µg/mL | Minimal Inhibitory Concentration ([3]; strain VGH-84-64): 0.12 µg/mL | Minimal Inhibitory Concentration ([4]; strain K-84-21): 0.5 µg/mL | Minimal Inhibitory Concentration ([4]; strain SVI): 1 µg/mL | Minimal Inhibitory Concentration ([4]; strain VGH-84-56): 0.5 µg/mL | Minimal Inhibitory Concentration ([4]; strain VGH-84-57): 1 µg/mL | Minimal Inhibitory Concentration ([4]; strain VGH-84-58): 0.25 µg/mL | Minimal Inhibitory Concentration ([4]; strain VGH-84-59): 0.25 µg/mL | Minimal Inhibitory Concentration [5]: >128 µg/mL | Minimal Inhibitory Concentration [6]: >128 µg/mL | Minimal Inhibitory Concentration [7]: >128 µg/mL | Minimal Inhibitory Concentration [8]: >128 µg/mL | Minimal Inhibitory Concentration [9]: >128 µg/mL | Minimal Inhibitory Concentration [10]: >128 µg/mL | Minimal Inhibitory Concentration [11]: 1 µg/mL | Minimal Inhibitory Concentration [12]: 4 µg/mL | Minimal Inhibitory Concentration ([13]; strain ATCC 14956): 0.5 µg/mL | Minimal Inhibitory Concentration ([13]; strain ATCC 29328): 0.5 µg/mL | ZONE SIZE [14]: 13 mm | MIC [15]: 2 to 4 µg/mL | MIC [16]: 2 to 4 µg/mL | MIC [17]: 4 µg/mL (≈ 3.26 µM) | MIC [18]: ≧ 256 µg/ml | MIC [19]: > 256 µg/mL | MIC [20]: > 256 µg/mL | MIC [21]: 8 to 16 µg/mL | MIC [22]: 16 µg/mL (≈ 13 µM) | MIC ([23]; strain B78 (ATCC 27164)): 1 µg/mL (≈ 0.815 µM) | MIC ([23]; strain B204 (ATCC 31212)): 0.5 µg/mL (≈ 0.408 µM) | Wg Gains And Feed Efficiency % Improvement Over Controls COMBINED ([24]; 12.5 PPM in diet): 2.6% | Wg Gains And Feed Efficiency % Improvement Over Controls FEMALES ([24]; 12.5 PPM in diet): 6.0% | Wg Gains And Feed Efficiency % Improvement Over Controls MALES ([24]; 12.5 PPM in diet): 0% | Wg Gains And Feed Efficiency % Improvement Over Controls FEED/GAIN ([24]; 12.5 PPM in diet): 1.33** | Wg Gains And Feed Efficiency % Improvement Over Controls COMBINED ([24]; 25 PPM in diet): 3.4% | Wg Gains And Feed Efficiency % Improvement Over Controls FEMALES ([24]; 25 PPM in diet): 5.1% | Wg Gains And Feed Efficiency % Improvement Over Controls MALES ([24]; 25 PPM in diet): 2.4% | Wg Gains And Feed Efficiency % Improvement Over Controls FEED/GAIN ([24]; 25 PPM in diet): 1.38* | Wg Gains And Feed Efficiency % Improvement Over Controls COMBINED ([24]; 50 PPM in diet): 2.2% | Wg Gains And Feed Efficiency % Improvement Over Controls FEMALES ([24]; 50 PPM in diet): 4.6% | Wg Gains And Feed Efficiency % Improvement Over Controls MALES ([24]; 50 PPM in diet): 0% | Wg Gains And Feed Efficiency % Improvement Over Controls FEED/GAIN ([24]; 50 PPM in diet): 1.38* | Wg Gains And Feed Efficiency % Improvement Over Controls COMBINED ([24]; 100 PPM in diet): 4.5% | Wg Gains And Feed Efficiency % Improvement Over Controls FEMALES ([24]; 100 PPM in diet): 7.2% | Wg Gains And Feed Efficiency % Improvement Over Controls MALES ([24]; 100 PPM in diet): 1.7% | Wg Gains And Feed Efficiency % Improvement Over Controls FEED/GAIN ([24]; 100 PPM in diet): 1.34** | Wg Gains And Feed Efficiency % Improvement Over Controls COMBINED ([24]; 200 PPM in diet): 2.7% | Wg Gains And Feed Efficiency % Improvement Over Controls FEMALES ([24]; 200 PPM in diet): 1.4% | Wg Gains And Feed Efficiency % Improvement Over Controls MALES ([24]; 200 PPM in diet): 4.2% | Wg Gains And Feed Efficiency % Improvement Over Controls FEED/GAIN ([24]; 200 PPM in diet): 1.35** | Survival Ratios 7 Days After Infection [25, 28]: 2/5 | Survival Ratios 7 Days After Infection ([25]; single subcutaneous dose 8 mg/kg): 3/5 | Survival Ratios 7 Days After Infection [25, 29]: 5/5 | Survival Ratios 7 Days After Infection ([25]; single subcutaneous dose 32 mg/kg): 5/5 | Survival Ratios 7 Days After Infection [25, 30]: 5/5 | Survival Ratios 7 Days After Infection [26, 28]: 1/5 | Survival Ratios 7 Days After Infection [26, 29]: 1/5 | Survival Ratios 7 Days After Infection [26, 30]: 1/5 | Survival Ratios 7 Days After Infection ([26]; single subcutaneous dose 256 mg/kg): 1/5 | MIC [27]: 0.125 µg/mL (≈ 0.102 µM)
